Structures are written as SMILES. Where “and” joins values, the source holds several entries; their conditions need not be identical. Equal values may be shown once. Read-outs that look alike come from different tables or passages of the source.

The term IC50 denotes the concentration needed to halve the response being measured. A word on the Ki: it is the equilibrium dissociation constant of an inhibitor or competing ligand from its target.

For test [1], the target named is T1, BChE (Equus caballus, UniProt P81908).
T1 construct: BChE (Lee Biosolutions, Product No. 130–10-1, from equine serum); purchased Lee Biosolutions 130–10-1; host or cells: equine serum
T1 sequence (P81908 whole entry): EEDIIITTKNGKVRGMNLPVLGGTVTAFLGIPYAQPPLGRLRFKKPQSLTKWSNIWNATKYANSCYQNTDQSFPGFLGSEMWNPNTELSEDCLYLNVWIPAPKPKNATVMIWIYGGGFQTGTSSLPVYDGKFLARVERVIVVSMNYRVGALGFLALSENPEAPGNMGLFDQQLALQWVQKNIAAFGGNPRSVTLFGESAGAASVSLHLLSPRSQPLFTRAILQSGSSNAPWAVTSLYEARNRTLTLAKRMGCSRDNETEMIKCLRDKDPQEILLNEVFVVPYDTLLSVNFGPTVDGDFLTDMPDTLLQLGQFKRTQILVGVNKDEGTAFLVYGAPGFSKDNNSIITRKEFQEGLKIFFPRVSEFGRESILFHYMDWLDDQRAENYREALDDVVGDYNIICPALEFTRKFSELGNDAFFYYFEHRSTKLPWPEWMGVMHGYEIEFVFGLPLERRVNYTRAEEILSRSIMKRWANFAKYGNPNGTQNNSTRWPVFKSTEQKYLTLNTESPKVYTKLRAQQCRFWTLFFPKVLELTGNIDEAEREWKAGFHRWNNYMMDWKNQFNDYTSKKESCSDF
The note with it: previously reported; cited from earlier work.

In test [2] the target is T2, AChE (Electrophorus electricus, UniProt O42275).
T2 construct: purchased Sigma-Aldrich C2888
T2 sequence (O42275 24-633): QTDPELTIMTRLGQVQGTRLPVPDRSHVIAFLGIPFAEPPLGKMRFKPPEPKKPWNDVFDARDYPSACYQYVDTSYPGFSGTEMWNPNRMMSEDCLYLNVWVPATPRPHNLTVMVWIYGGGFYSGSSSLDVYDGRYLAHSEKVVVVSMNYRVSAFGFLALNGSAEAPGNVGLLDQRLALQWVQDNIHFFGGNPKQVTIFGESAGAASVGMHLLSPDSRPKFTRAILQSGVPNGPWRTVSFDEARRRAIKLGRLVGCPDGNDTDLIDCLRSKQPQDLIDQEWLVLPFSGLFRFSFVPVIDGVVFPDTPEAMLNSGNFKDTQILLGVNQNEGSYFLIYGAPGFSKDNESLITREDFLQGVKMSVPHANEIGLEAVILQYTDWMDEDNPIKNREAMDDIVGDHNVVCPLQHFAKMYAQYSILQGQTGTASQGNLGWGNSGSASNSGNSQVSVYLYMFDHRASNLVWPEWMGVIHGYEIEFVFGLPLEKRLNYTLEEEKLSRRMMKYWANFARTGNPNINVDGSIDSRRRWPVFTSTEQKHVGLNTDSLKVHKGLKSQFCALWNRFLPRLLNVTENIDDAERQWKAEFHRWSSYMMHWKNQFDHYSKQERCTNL
The note with it: values previously determined; cited from earlier work.

In test [3] the target is T2, AChE. As to conditions: previously reported; cited from earlier work.
The target in test [4] is T2, AChE. Kind of test: AChE inhibition assay (Ellman method). In kind it is biochemical. The method, then: (§1) Inhibition of AChE (Sigma-Aldrich, Product No. C2888, from Electrophorus electricus) and BChE (Lee Biosolutions, Product No. 130–10-1, from equine serum) was carried out as previously described by our lab[18]^,[19]. Briefly, compounds to be tested were prepared in sodium phosphate (dibasic) buffer (0.1 M) containing 10% DMSO and then diluted with phosphate buffer across the wells of a 96-well plate to reach desired concentrations (50 µL total well volume). AChE (50 µL, 400 U/L, in phosphate buffer) or BChE (50 µL, 400 U/L, in phosphate buffer) was added to the appropriate wells. After incubation, the enzymatic reaction was initiated with 100 µL of a 1:1 (v/v) solution of acetylthiocholine (ATC, 2 mM in phosphate buffer) or butyrylthiocholine (BTC, 2 mM in phosphate buffer) and 5,5′-dithiobis-(2-nitrobenzoic acid) (DTNB, 1 mM in phosphate buffer). […] IC50 values were calculated using GraphPad Prism 9.1.1.
(§2) The synthesis of the target molecules 4a-j and 5a-j was carried out in straightforward fashion by substitution of isatin or indole with iodomethane or 1-bromoalkanes in the presence of K2CO3 and DMF or NaOH and DMSO (Scheme 1). […] A DEPT135 experiment was run to differentiate this signal (negative) from the solvent (positive) (see supplementary data), as we have employed previosuly. The synthesised compounds were then evaluated as AChEI and BChEI using the established Ellman method. Results are reported as IC50 values in Table 1.
Background: DTNB colorimetry detects thiols as they appear.

Test [5] addresses T1, BChE. As to the kind of experiment: biochemical. In kind it is biochemical. The note with it: for Selectivity: calculated as AChE IC50/BChE IC50. The method, then:
as §1, §2

For test [6], the target named is AChE. As to conditions: previously reported by Hyatt et al.; cited from earlier work.
In test [7] the target is BChE. The note with it: previously reported by Hyatt et al.; cited from earlier work.
The target of test [8] is T2, AChE. As to the kind of experiment: Kinetics assay of AChE inhibition (Lineweaver-Burk plot). The test is classed as biochemical. The note with it: Lineweaver-Burk analysis with respect to acetylthiocholine (ATC). The procedure: (§3) Kinetics assays of 4i inhibition with AChE and BChE were also carried out as previously described[18]^,[19]. Briefly, varying concentrations of 4i were incubated with AChE and BChE before initiating the enzymatic reactions by addition of 100 µL of a 1:1 (v/v) solution of ATC or BTC (0.4 mM, 0.5 mM, 1 mM, or 2 mM in phosphate buffer) and DTNB (1 mM in phosphate buffer) to all wells. […] Rate vs concentration was fitted to a Lineweaver-Burk plot using GraphPad Prism 9.1.1.

Test [9] addresses T1, BChE. Kind of test: Kinetics assay of BChE inhibition (Lineweaver-Burk plot). The note with it: Lineweaver-Burk analysis with respect to butyrylthiocholine (BTC). In kind it is biochemical, equine. The procedure: as §3
In test [10] the target is T1, BChE. The note with it: read-out: BChE IC50; values previously determined; cited from earlier work.
The mark [11] stands for this setting: mean of three independent experiments ± SEM, > X = highest soluble concentration tested, read-out: AChE IC50.
Where [12] appears, read: mean of three independent experiments ± SEM, > X = highest soluble concentration tested, read-out: BChE IC50.

For `O=C1C(=O)N(CCCCCN2C(=O)C(=O)c3ccccc32)c2ccccc21` [Compound 1], at BChE [1], the “mode of inhibition of BChE” value was “mixed inhibition”.
`C=C1SC(SCCCN2C(=O)C(=O)c3ccccc32)=NC1(C)C` [Compound 3]: the IC50 at AChE [2] is 18.2 µM. In addition, the “mode of inhibition of AChE” value on AChE [3] is recorded as “non-competitive inhibition”.
For `CN1C(=O)C(=O)c2ccccc21` [Compound 4a, 1-Methylindoline-2,3-dione], the IC50 against AChE [4] is 647 ± 57 µM; against BChE [5], greater than 1000 µM. Besides, the Selectivity at BChE [5] is given as less than 0.6. Further, the Ki at AChE [6] and on BChE [7] was greater than 100 µM throughout.
`CCN1C(=O)C(=O)c2ccccc21` [Compound 4b, 1-Ethylindoline-2,3-dione]: the IC50 at AChE [4] (setting [11]) worked out at 297 ± 35 µM; at BChE [5] (setting [12]), 193 ± 8 µM. In addition, at BChE [5], the Selectivity was 1.5.
Take `CCCN1C(=O)C(=O)c2ccccc21` [Compound 4c, 1-Propylindoline-2,3-dione]: the IC50 at AChE [4] (setting [11]) was 519 ± 11 µM; on BChE [5] (setting [12]), 257 ± 8 µM. Also, at BChE [5], the Selectivity is listed as 2.0.
On to `CCCCN1C(=O)C(=O)c2ccccc21` [Compound 4d, 1-Butylindoline-2,3-dione], for which the Selectivity on BChE [5] is given as 7.3. For the same molecule, the IC50 on BChE [5] (setting [12]) is 73.7 ± 1.3 µM; at AChE [2] it was 540 ± 23 µM.
As for `CCCCCN1C(=O)C(=O)c2ccccc21` [Compound 4e, 1-Pentylindoline-2,3-dione], the IC50 on AChE [4] (setting [11]) was 197 ± 51 µM; at BChE [5] (setting [12]) it was 83.8 ± 3.4 µM. Also, on BChE [5], the Selectivity is 2.4.
In the case of `CCCCCCN1C(=O)C(=O)c2ccccc21` [Compound 4f, 1-Hexylindoline-2,3-dione], the IC50 is greater than 125 µM on AChE [4] (setting [11]) and 90.8 ± 2.3 µM on BChE [5] (setting [12]). The Selectivity at BChE [5] is on record as greater than 1.4.
For the molecule `CCCCCCCN1C(=O)C(=O)c2ccccc21` [Compound 4g, 1-Heptylindoline-2,3-dione], the IC50 at AChE [4] (setting [11]) was 67.8 ± 7.8 µM; at BChE [5] (setting [12]), 20.7 ± 3.3 µM. The Selectivity on BChE [5] was 3.3.
As to `CCCCCCCCN1C(=O)C(=O)c2ccccc21` [Compound 4h, 1-Octylindoline-2,3-dione], the IC50 is greater than 125 µM at AChE [4] (setting [11]) and 17.9 ± 1.8 µM at BChE [5] (setting [12]). Further, the Selectivity at BChE [5] was greater than 7.0.
In the case of `CCCCCCCCCN1C(=O)C(=O)c2ccccc21` [Compound 4i, 1-Nonylindoline-2,3-dione], the IC50 at AChE [4] (setting [11]) was determined as 82.1 ± 8.1 µM; at BChE [5] (setting [12]) it was 3.77 ± 0.45 µM. The Selectivity at BChE [5] was 22 and 21.8. Further, the “mode of inhibition of AChE” value on AChE [8] is recorded as “non-competitive inhibition”. In addition, the “mode of inhibition of BChE” value at BChE [9] is listed as “mixed inhibition”.
`CCCCCCCCCCN1C(=O)C(=O)c2ccccc21` [Compound 4j, 1-Decylindoline-2,3-dione]: the IC50 at AChE [4] (setting [11]) was 62.2 ± 8.5 µM; on BChE [5] (setting [12]) it was 5.16 ± 0.66 µM. Further, the Selectivity on BChE [5] is 12.1.
Regarding `Cn1ccc2ccccc21` [Compound 5a, 1-Methyl-1H-indole], the midpoint of inhibition at AChE [4], the IC50, lay at 86.7 ± 4.5 µM. Further, at BChE [5], the IC50 is greater than 125 µM and the Selectivity was less than 0.7.
At AChE [4], `CCn1ccc2ccccc21` [Compound 5b, 1-Ethyl-1H-indole] gave an IC50 of 101 ± 6 µM. Further, at BChE [5], the IC50 was greater than 125 µM and the Selectivity is listed as less than 0.8.
Take `CCCn1ccc2ccccc21` [Compound 5c, 1-Propyl-1H-indole]: the IC50 on AChE [4] (setting [11]) is 78.6 ± 2.3 µM; on BChE [5] (setting [12]), greater than 125 µM. Also, at BChE [5], the Selectivity is given as less than 0.6.
With `CCCCn1ccc2ccccc21` [Compound 5d, 1-Butyl-1H-indole], the IC50 at AChE [4] (setting [11]) and at BChE [5] (setting [12]) was greater than 125 µM each time.
Regarding `CCCCCn1ccc2ccccc21` [Compound 5e, 1-Pentyl-1H-indole], the figures for the IC50 at AChE [4] (setting [11]) and at BChE [5] (setting [12]) were 95 ± 5.9 µM and greater than 125 µM, respectively. The Selectivity on BChE [5] is given as less than 0.8.
For the molecule `CCCCCCn1ccc2ccccc21` [Compound 5f, 1-Hexyl-1H-indole], the IC50 on AChE [4] (setting [11]) was 76.2 ± 1.6 µM; at BChE [5] (setting [12]), greater than 125 µM. Also, the Selectivity on BChE [5] was less than 0.6.
In the case of `CCCCCCCn1ccc2ccccc21` [Compound 5g, 1-Heptyl-1H-indole], the IC50 on AChE [4] (setting [11]) was 35 ± 10.5 µM; at BChE [5] (setting [12]) it was greater than 62.5 µM. On BChE [5], the Selectivity is listed as less than 0.6.
For `CCCCCCCCn1ccc2ccccc21` [Compound 5h, 1-Octyl-1H-indole], in that order: 49.5 ± 1.8 µM, greater than 62.5 µM and less than 0.8.
In the case of `CCCCCCCCCn1ccc2ccccc21` [Compound 5i, 1-Nonyl-1H-indole], the IC50 was 44.6 ± 1.7 µM at AChE [4] (setting [11]) and greater than 62.5 µM on BChE [5] (setting [12]). For the same molecule, the Selectivity on BChE [5] is given as less than 0.7. The “loss of potency towards BChE compared to 4i” value on BChE [5] (inhibition assay, 5i vs 4i) is greater than 17 fold.
Consider `CCCCCCCCCCn1ccc2ccccc21` [Compound 5j, 1-Decyl-1H-indole], for which the IC50 on AChE [4] (setting [11]) is 48.6 ± 1.4 µM; on BChE [5] (setting [12]), greater than 62.5 µM. Moreover, the Selectivity at BChE [5] was less than 0.8.
Turning to `CCCCCCCCCCCCN1C(=O)C(=O)c2ccccc21` [N-dodecyl isatin], the Ki on AChE [6] and on BChE [7] was greater than 100 µM in each case.
Consider `CCCCCCCCCCCCCCCCN1C(=O)C(=O)c2ccccc21` [N-hexadecyl isatin], for which the Ki at AChE [6] and on BChE [7] was greater than 100 µM in each case.
As for `O=C1Nc2ccccc2C1=O` [isatin, indoline-2,3-dione], the IC50 at AChE [2] and at BChE [10] was greater than 1000 µM in each case.

Values taken from article PMC11721616, “Evaluation of N-alkyl isatins and indoles as acetylcholinesterase and butyrylcholinesterase inhibitors” (Journal of Enzyme Inhibition and Medicinal Chemistry, 2023).
